In general, IC50 refers to the point on the concentration scale where inhibition reaches its midpoint.

3 compounds from paper PMC12668308, “A Novel Antimalarial Agent that Inhibits Protein Synthesis in Plasmodium falciparum” (Angewandte Chemie (International Ed. in English), 2025) can be followed below.

Like-named read-outs stand apart in the source and are kept apart here.

For one test, the system named is Dd2b2^WT. Description: [3H]-hypoxanthine incorporation assay. The format is cell-based, Plasmodium falciparum. The note with it: Plasmodium falciparum, 72 h, read-out: Parent (Dd2b2^WT) IC50. The method, then:
(§1) P. falciparum asexual blood stage parasites were cultured in human red blood cells (RBC, Blutspende SRK, Zurich) at a hematocrit of 5% in RPMI 1640 medium. The RPMI 1640 medium (ThermoFisher Scientific #51800−043) was supplemented with the following: 24 mM NaHCO3 (pH 7.3, Sigma-Aldrich #31437−500G-R), 25 mM Hepes (Sigma-Aldrich #H4034−500G), 0.36 mM hypoxanthine (Sigma-Aldrich # H9377−25G), 100 µg mL^-1 neomycin (Sigma-Aldrich #N6386−100G) and 0.5% Albumax II (Thermo Fisher #11021−045). Additionally, 2 mM choline chloride (279 mg/L, Sigma-Aldrich #C7527−100G) was added to the culture to block the induction of sexual commitment as described. ^[31^] The RPMI 1640 medium and components were dissolved in water (Milli-Q purified), stirred for at least 3 h, and then sterile filtered (0.22 μm pore size) with a bottle top filter (Corning # 431118). Parasite cultures were maintained in an atmosphere of 3% O2, 4% CO2, and 93% N2 in air-tight chambers at 37 °C. The [^3H]-hypoxanthine incorporation assay was used to test compound activity in the specific parasite lines as described.^[32^] Briefly, compounds were dissolved in DMSO (10 mM) and diluted in a hypoxanthine-free culture medium. A limiting dilution was performed over a 64-fold range (6-step twofold dilution) in a 96-well plate in duplicates. For every starting concentration, a limiting dilution was performed over a 64-fold range (6-step twofold dilution) in a 96-well plate in two biological duplicates. Parasites were added at 100 µL to each well containing the compound to obtain a final parasitemia of 0.3% and haematocrit of 1.25%. The plates were incubated for 48 h before 0.25 µCi of [^3H]-hypoxanthine was added per well for an additional 24 h. Parasites were harvested on a glass-fiber filter with a Microbeta FilterMate cell harvester (Perkin Elmer, Waltham, USA) and radioactivity was counted using a MicroBeta2 liquid scintillation counter (Perkin Elmer, Waltham, US). […] The fifty percent inhibitory concentration (IC50) was calculated by using nonlinear, four parameter (variable slope) curve fitting as described ^[33^] after importing into GraphPad Prism (version 8.3.0).
(§2) 31 was used for resistance selection studies using the strain Dd2b2 (kindly provided by David Fidock). Resistance selection was done as described in ^[34^]. As summarized in Table S3, an initial inoculum of 2 x 10^9 asexual blood stage parasites (at 2-2.5% parasitemia) were cultured in three independent flasks. […] Cloning via limiting dilution was performed to obtain resistant clones for further characterization as described in section 2.2.5.

The test system of a further test is Dd2b2^31-R3.1. Description: [3H]-hypoxanthine incorporation assay. The note with it: Plasmodium falciparum, read-out: mean IC50 value ± s.d. The format is cell-based, Plasmodium falciparum. The method, then:
as §1, §2

The test system of a further test is Dd2b2^31-R1.1. Description: [3H]-hypoxanthine incorporation assay. The format is cell-based, Plasmodium falciparum. The following applies: Plasmodium falciparum, read-out: mean IC50 value ± s.d. As to the method:
as §1, §2

The subject of a further test is Dd2b2^31-R2.1. Nature of the test: [3H]-hypoxanthine incorporation assay. The format is cell-based, Plasmodium falciparum. The note with it: Plasmodium falciparum, read-out: mean IC50 value ± s.d. The method, then:
as §1, §2

For the next test, the system named is Dd2b2^31-R1.2. Description: [3H]-hypoxanthine incorporation assay. The format is cell-based, Plasmodium falciparum. The following applies: Plasmodium falciparum, read-out: mean IC50 value ± s.d. The method, then: as §1, §2
Test [1] has as its system P. falciparum NF54 strain. Description: [3H]-hypoxanthine incorporation assay, asexual blood stage. The format is cell-based, Plasmodium falciparum. The following applies: Plasmodium falciparum. As to the method:
as §1

Test [2] deals with Dd2 GNF156 (Dd2 + pfcarl). Nature of the test: [3H]-hypoxanthine incorporation assay. The format is cell-based, Plasmodium falciparum. The following applies: Plasmodium falciparum, DD2, 72 h. The method, then:
(§3) ^[a]72-h [^3H] hypoxanthhine incorporation assay. Data is expressed as mean±s.d..
(§4) P. falciparum asexual blood stage parasites were cultured in human red blood cells (RBC, Blutspende SRK, Zurich) at a hematocrit of 5% in RPMI 1640 medium. The RPMI 1640 medium (ThermoFisher Scientific #51800−043) was supplemented with the following: 24 mM NaHCO3 (pH 7.3, Sigma-Aldrich #31437−500G-R), 25 mM Hepes (Sigma-Aldrich #H4034−500G), 0.36 mM hypoxanthine (Sigma-Aldrich # H9377−25G), 100 µg mL^-1 neomycin (Sigma-Aldrich #N6386−100G) and 0.5% Albumax II (Thermo Fisher #11021−045). Additionally, 2 mM choline chloride (279 mg/L, Sigma-Aldrich #C7527−100G) was added to the culture to block the induction of sexual commitment as described. ^[31^] The RPMI 1640 medium and components were dissolved in water (Milli-Q purified), stirred for at least 3 h, and then sterile filtered (0.22 μm pore size) with a bottle top filter (Corning # 431118). Parasite cultures were maintained in an atmosphere of 3% O2, 4% CO2, and 93% N2 in air-tight chambers at 37 °C. The [^3H]-hypoxanthine incorporation assay was used to test compound activity in the specific parasite lines as described.^[32^] Briefly, compounds were dissolved in DMSO (10 mM) and diluted in a hypoxanthine-free culture medium. A limiting dilution was performed over a 64-fold range (6-step twofold dilution) in a 96-well plate in duplicates. For every starting concentration, a limiting dilution was performed over a 64-fold range (6-step twofold dilution) in a 96-well plate in two biological duplicates. Parasites were added at 100 µL to each well containing the compound to obtain a final parasitemia of 0.3% and haematocrit of 1.25%. The plates were incubated for 48 h before 0.25 µCi of [^3H]-hypoxanthine was added per well for an additional 24 h. Parasites were harvested on a glass-fiber filter with a Microbeta FilterMate cell harvester (Perkin Elmer, Waltham, USA) and radioactivity was counted using a MicroBeta2 liquid scintillation counter (Perkin Elmer, Waltham, US). The results were recorded, processed by subtraction of the mean background signal obtained from the uninfected RBC controls and expressed as percentage of untreated controls. The fifty percent inhibitory concentration (IC50) was calculated by using nonlinear, four parameter (variable slope) curve fitting as described ^[33^] after importing into GraphPad Prism (version 8.3.0).

For test [3], the system named is Dd2 NITD609 (Dd2 + pfatp4). Description: [3H]-hypoxanthine incorporation assay. The format is cell-based, Plasmodium falciparum. The note with it: Plasmodium falciparum, DD2, 72 h. The method, then: as §3, §4
The subject of test [4] is Dd2 DDD107458 (Dd2 + pfeEF2). Nature of the test: [3H]-hypoxanthine incorporation assay. The format is cell-based, Plasmodium falciparum. The following applies: Plasmodium falciparum, DD2, 72 h. The method, then:
as §3, §4

The test system of test [5] is Dd2 Fosmidomycin (Dd2 + pfdxr). Nature of the test: [3H]-hypoxanthine incorporation assay. The format is cell-based, Plasmodium falciparum. The note with it: Plasmodium falciparum, DD2, 72 h. As to the method: as §3, §4
The next test relates to P. falciparum Dd2. Nature of the test: [3H]-hypoxanthine incorporation assay. The note with it: Plasmodium falciparum, DD2, 72 h. The format is cell-based, Plasmodium falciparum. As to the method:
as §3, §4

Test [6] relates to Dd2 MMV390048 (Dd2 + pfpI4k). Description: [3H]-hypoxanthine incorporation assay. The format is cell-based, Plasmodium falciparum. The note with it: Plasmodium falciparum, DD2, 72 h. The method, then: as §3, §4
The subject of a further test is P. falciparum K1. Description: [3H]-hypoxanthine incorporation assay. The format is cell-based, Plasmodium falciparum. The following applies: Plasmodium falciparum; K1; 72-h assay; mean±s.d.; read-out: IC50. As to the method:
as §3, §4

In test [7] the test system is Dd2 ELQ300 (Dd2 + pfcytb). Description: [3H]-hypoxanthine incorporation assay. The format is cell-based, Plasmodium falciparum. The following applies: Plasmodium falciparum, DD2, 72 h. The method, then:
as §3, §4

Test [8] relates to Dd2 DSM265 (Dd2 + pfdhodh). Description: [3H]-hypoxanthine incorporation assay. The format is cell-based, Plasmodium falciparum. The following applies: Plasmodium falciparum, 72 h. As to the method: as §3, §4
Another test deals with 3D7^WT. Description: [3H]-hypoxanthine incorporation assay. The format is cell-based. The following applies: Plasmodium falciparum, 3D7; 72-h assay; mean±s.d.; read-out: 3D7^WT IC50. The method, then:
^[a] 72-h [^3H] hypoxanthhine incorporation assay; Data is expressed as mean±s.d.. The assay was performed in three independent biological experiments, each in biological duplicates.
as §4

The next test deals with PfIspD (Plasmodium falciparum, UniProt W7KNE8). Nature of the test: PfIspD inhibition. The format is biochemical. The following applies: mean ± s.d.
Test [9] relates to mRNA translation in NF54 trophozoite-stage parasites. Nature of the test: Surface sensing of translation (SUnSET) assay. The following applies: trophozoites 30–35 hpi; 31 at 3x, 50x, 100x IC50; 34 and pyrimethamine at 3x IC50. The format is cell-based, Plasmodium falciparum. The method, then: To confirm the role of 31 as a translation inhibitor, the surface sensing of translation (SUnSET) assay was employed. This involves incubating the culture with a translation inhibitor, puromycin, a structural analogue of aminoacyl tRNA. Puromycin is incorporated in the nascent polypeptide chain and prevents further elongation. When puromcyin is used in sub‐lethal concentrations, incorporation of puromycin in neosynthesized protein correlates with the levels of mRNA translation (Figure 3c, lane2).^[ [27] ^] […] This trend was further confirmed by the quantified western blot signals (Figures 3d and S4C) that are consistent with the iSPP profiling results.
SUnSET: The SUnSET assay was done as described in. ^[27^]Tightly synchronized NF54 wild type parasites were treated with the compounds for 4h at 30-35 hpi (trophozoite stage). The following compounds and amounts used were: cycloheximide (3xIC50, 1,2 µM; Calbiochem), pyrimethamine (3xIC50, 21 nM; MedChemExpress), 34 (3xIC50, 12 µM), and 31 (3xIC50, 12 nM; 50xIC50, 200 nM; 100xIC50, 400 nM). Parasites were incubated with 1 µg mL^-1 (Sigma P8833) for 1 h at 37 °C and saponin lysis was performed.
Saponin lysis and Western blot: Saponin lysis was done on infected RBC at ~5% parasitemia to lyse erythrocytes. Parasite cultures were centrifuged at 1,200 g for 5 min at room temperature. Once the supernatant was discarded, 10 volumes of ice-cold 0.1% (w/v) saponin (Calbiochem 558255, dissolved in PBS, and filtered with 0,22) was added, incubated on ice for 10 min and centrifuged for 2,272 g for 15 min at 4 °C. […] The membrane was washed 3 times in PBS-T (3 min incubation in each washing step) and the signal was detected using the chemiluminescent substrate SuperSignal West Pico Plus (Thermo Scientific, REF 34580) and the imaging system Vilber Fusion FX7 Edge 17.10 SN. Quantification of Western blot signal was done by measuring the integrated density of each lane using ImageJ analysis software (version 1.54p). […]

PfIspD, sequence (W7KNE8 entry or part of it): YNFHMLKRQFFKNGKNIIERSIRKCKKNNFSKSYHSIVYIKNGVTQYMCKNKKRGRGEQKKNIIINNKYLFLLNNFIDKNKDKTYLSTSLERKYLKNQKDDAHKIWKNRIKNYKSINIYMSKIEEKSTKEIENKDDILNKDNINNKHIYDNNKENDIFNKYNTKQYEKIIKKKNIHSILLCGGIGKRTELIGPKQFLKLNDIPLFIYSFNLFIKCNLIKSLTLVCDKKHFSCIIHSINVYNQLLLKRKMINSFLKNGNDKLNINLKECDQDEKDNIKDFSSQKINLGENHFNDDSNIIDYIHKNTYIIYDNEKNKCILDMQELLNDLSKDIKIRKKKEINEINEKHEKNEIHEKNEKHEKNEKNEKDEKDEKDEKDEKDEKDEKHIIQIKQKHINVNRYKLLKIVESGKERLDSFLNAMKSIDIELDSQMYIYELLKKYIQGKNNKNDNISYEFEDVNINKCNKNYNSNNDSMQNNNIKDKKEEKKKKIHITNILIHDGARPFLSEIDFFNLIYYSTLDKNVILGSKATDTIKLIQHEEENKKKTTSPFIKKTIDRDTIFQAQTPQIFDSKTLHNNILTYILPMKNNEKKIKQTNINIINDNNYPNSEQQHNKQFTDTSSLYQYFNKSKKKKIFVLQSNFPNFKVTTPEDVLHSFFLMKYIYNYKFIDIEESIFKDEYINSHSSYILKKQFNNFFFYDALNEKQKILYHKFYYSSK

Regarding `C[C@H]1[C@H](OC(=O)CCC(=O)O)O[C@@H]2O[C@@]3(C)CC[C@H]4[C@H](C)CC[C@@H]1[C@@]24OO3` [Artesunate, artesunate, reference compound], the IC50 is 0.5 ± 0.1 nM in the test on Dd2b2^WT; 1.2 ± 0.6 nM in the test on Dd2b2^31-R3.1; 1.6 ± 0.3 nM in the test on Dd2b2^31-R1.1; 2.6 ± 1.5 nM in the test on Dd2b2^31-R2.1; 2.2 ± 0.6 nM in the test with Dd2b2^31-R1.2; 0.4 ± 0.07 nM in test [1] (NF54, 72 h, Table S2, NF54 sensitive strain, 72-h assay, mean±s.d., read-out: IC50). For the same compound, the IC50 worked out at 0.2 ± 0.02 nM in test [2]; 0.2 ± 0.01 nM in [3]; 0.2 ± 0.2 nM in test [4]; 0.2 ± 0.01 nM in [5]; 0.3 ± 0.2 nM in the test on P. falciparum Dd2; 0.3 ± 0.1 nM in [6]. Further, the IC50 in the test with P. falciparum K1 is 0.2 ± 0.01 nM; in [7] it was 0.2 ± 0.01 nM; in test [8], 0.2 ± 0.01 nM; in the test on 3D7^WT, 0.6 ± 0.1 nM.
For `O=C(Nc1cc(S(=O)(=O)N2CCCC2)ccc1O)c1cccc(Oc2ccccc2)c1` [Compound 1, N-(2-Hydroxy-5-(pyrrolidin-1-ylsulfonyl)phenyl)-3-phenoxybenzamide], the half-maximal inhibitory concentration (IC50) in test [1] (NF54, asexual blood stage, mean ± s.d., read-out: PfNF54 IC50 ± s.d.) was found to be 592 ± 77.6 nM; on PfIspD, 15000 ± 4000 nM.
Regarding `CCc1nc(N)nc(N)c1-c1ccc(Cl)cc1` [Pyrimethamine, reference compound], in test [9], the “mRNA translation (puromycin incorporation)” value is reported as “did not reduce mRNA translation”.
